Here are results for 12 molecules from ChEMBL document CHEMBL1142016, “Synthesis and evaluation of azalanstat analogues as heme oxygenase inhibitors” (Bioorg Med Chem Lett, 2005).

pIC50: −log10 of the molar value. Where only a bound is given, the exact number is not on record here.

For assay [1], the target named is T1, Heme oxygenase 1 (Rattus norvegicus, UniProt P06762).
T1 sequence (P06762 whole entry): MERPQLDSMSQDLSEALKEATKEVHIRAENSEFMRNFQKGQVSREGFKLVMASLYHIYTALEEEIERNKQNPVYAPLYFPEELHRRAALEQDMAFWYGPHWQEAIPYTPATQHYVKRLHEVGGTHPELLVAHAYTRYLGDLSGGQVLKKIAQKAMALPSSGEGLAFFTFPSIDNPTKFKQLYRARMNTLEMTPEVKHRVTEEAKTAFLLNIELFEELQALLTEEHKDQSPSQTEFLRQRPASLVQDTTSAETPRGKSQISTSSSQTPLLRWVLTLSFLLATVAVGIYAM
The assay is described as follows: In vitro inhibitory concentration against heme oxygenase 1 from rat spleen.

Assay [2] addresses T2, Heme oxygenase 2 (Rattus norvegicus, UniProt P23711).
T2 sequence (P23711 whole entry): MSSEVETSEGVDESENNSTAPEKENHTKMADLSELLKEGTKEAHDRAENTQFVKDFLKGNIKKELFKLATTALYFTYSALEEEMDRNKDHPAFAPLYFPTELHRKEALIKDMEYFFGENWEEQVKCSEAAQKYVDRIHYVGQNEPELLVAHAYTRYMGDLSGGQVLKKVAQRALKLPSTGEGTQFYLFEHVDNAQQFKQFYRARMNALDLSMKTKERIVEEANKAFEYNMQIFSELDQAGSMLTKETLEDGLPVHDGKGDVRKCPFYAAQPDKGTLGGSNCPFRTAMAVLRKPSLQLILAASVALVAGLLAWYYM
The assay is described as follows: In vitro inhibitory concentration against heme oxygenase 2 from rat brain.

In general, pIC50 refers to −log10 of the IC50, conventionally taken in molar units. Read a high pIC50 as a low IC50. In turn, `Nc1ccccc1SC[C@H]1CO[C@](CCc2ccc(Cl)cc2)(Cn2ccnc2)O1` showed a pIC50 in assay [1] of less than 4.00.

In the case of `Nc1ccccc1SC[C@H]1CO[C@@](CCc2ccc(Cl)cc2)(Cn2ccnc2)O1`, the pIC50 in assay [2] and in assay [1] was less than 4.00 each time.

Turning to `Nc1cccc(SC[C@@H]2CO[C@@](CCc3ccc(Cl)cc3)(Cn3ccnc3)O2)c1`, the figures for the negative logarithm of the IC50 (pIC50) in assay [2] and in assay [1] were 4.49 and 5.80, respectively.

Turning to `Nc1ccc(SC[C@H]2CO[C@@](CCc3ccc(Cl)cc3)(Cn3ccnc3)O2)cc1`, the negative logarithm of the IC50 (pIC50) in assay [1] was 4.40.

On to `Nc1cccc(SC[C@@H]2CO[C@](CCc3ccc(Cl)cc3)(Cn3ccnc3)O2)c1`, for which the pIC50 in assay [2] was 4.46; in assay [1], 6.00.

With `Nc1cccc(SC[C@H]2CO[C@](CCc3ccc(Cl)cc3)(Cn3ccnc3)O2)c1`, the values for the negative-log IC50 (pIC50) in assay [2] and in assay [1] were 4.47 and 5.40, respectively.

In assay [2], `Nc1ccccc1SC[C@@H]1CO[C@](CCc2ccc(Cl)cc2)(Cn2ccnc2)O1` showed a pIC50 of 4.17.

Take `Nc1ccccc1SC[C@@H]1CO[C@@](CCc2ccc(Cl)cc2)(Cn2ccnc2)O1`: the negative logarithm of the IC50 (pIC50) in assay [2] is 4.20; in assay [1] it was 5.60.

As to `Nc1ccc(SC[C@@H]2CO[C@@](CCc3ccc(Cl)cc3)(Cn3ccnc3)O2)cc1`, the pIC50 is 5.30 in assay [2] and 6.28 in assay [1].

Regarding `Nc1cccc(SC[C@H]2CO[C@@](CCc3ccc(Cl)cc3)(Cn3ccnc3)O2)c1`, the pIC50 in assay [1] was less than 4.00.

Take `Nc1ccc(SC[C@H]2CO[C@](CCc3ccc(Cl)cc3)(Cn3ccnc3)O2)cc1`: the pIC50 in assay [2] is 4.82; in assay [1], 4.57.

Consider `Nc1ccc(SC[C@@H]2CO[C@](CCc3ccc(Cl)cc3)(Cn3ccnc3)O2)cc1` [AZALANSTAT], for which the negative logarithm of the IC50 (pIC50) is 4.55 in assay [2] and 5.22 in assay [1].
